The values below come from PubChem BioAssay AID1745844 (Carcinogenic Potency Database (CPDB), 2022).

The source made the active and inactive calls. How the calls were made is not given here.

Broadly, the TD50 is the dose at which the toxic effect under study appears in half of the subjects.

The data set deals with rodent lifetime carcinogenesis bioassay, tumor incidence TD50. Description: chronic cancer bioassays in animals – CPDB, compiled studies (AID 1745844).

In the case of `CC1=CC(=O)CC(C)(C)C1`, the carcinogen call (mouse, strain B6C3F1, females, by gavage, site: any site (literature study), lesion: several types, types named in the paper, dosed 103 weeks, study length 104 weeks) was “negative (inactive)”. The TD50 is, setting by setting: (mouse, strain B6C3F1, females, by gavage, site: liver, lesion: hepatocellular adenoma + hepatocellular carcinoma + neoplastic nodule, dosed 103 weeks, study length 104 weeks) 2740 mg/kg/day; (mouse, strain B6C3F1, males, by gavage, site: all sites, lesion: leukemia, NOS + malignant lymphoma, histiocytic type + malignant lymphoma, mixed type + malignant lymphoma, lymphocytic type, dosed 103 weeks, study length 104 weeks) 236 mg/kg/day; (mouse, strain B6C3F1, males, by gavage, site: all sites, lesion: malignant lymphoma, histiocytic type + malignant lymphoma, mixed type + malignant lymphoma, lymphocytic type, dosed 103 weeks, study length 104 weeks) 203 mg/kg/day; (mouse, strain B6C3F1, males, by gavage, site: all sites, lesion: malignant lymphoma, histiocytic type, dosed 103 weeks, study length 104 weeks) 244 mg/kg/day; (mouse, strain B6C3F1, males, by gavage, site: liver, lesion: hepatocellular adenoma + hepatocellular carcinoma + neoplastic nodule, dosed 103 weeks, study length 104 weeks) 573 mg/kg/day; (mouse, strain B6C3F1, males, by gavage, site: liver, lesion: hepatocellular adenoma + hepatocellular carcinoma, dosed 103 weeks, study length 104 weeks) 573 mg/kg/day. Moreover, the TD50 was found to be 840 mg/kg/day (mouse, strain B6C3F1, males, by gavage, site: skin + subcutaneous tissue, lesion: fibroma + fibrosarcoma, dosed 103 weeks, study length 104 weeks); 882 mg/kg/day (mouse, strain B6C3F1, males, by gavage, site: skin + subcutaneous tissue, lesion: fibroma + neurofibrosarcoma + fibrosarcoma + sarcoma, dosed 103 weeks, study length 104 weeks); 1210 mg/kg/day (mouse, strain B6C3F1, males, by gavage, site: skin + subcutaneous tissue, lesion: neurofibrosarcoma + fibrosarcoma + sarcoma, dosed 103 weeks, study length 104 weeks); 1210 mg/kg/day (mouse, strain B6C3F1, males, by gavage, site: subcutaneous tissue, lesion: fibroma, dosed 103 weeks, study length 104 weeks); 703 mg/kg/day (mouse, strain B6C3F1, males, by gavage, site: subcutaneous tissue, lesion: fibrosarcoma + fibroma + neurofibrosarcoma + sarcoma, dosed 103 weeks, study length 104 weeks); 654 mg/kg/day (mouse, strain B6C3F1, males, by gavage, site: subcutaneous tissue, lesion: fibrosarcoma + fibroma, dosed 103 weeks, study length 104 weeks). Also, the TD50 was 1260 mg/kg/day (mouse, strain B6C3F1, males, by gavage, site: subcutaneous tissue, lesion: fibrosarcoma + neurofibrosarcoma + sarcoma, dosed 103 weeks, study length 104 weeks); 1170 mg/kg/day (mouse, strain B6C3F1, males, by gavage, site: subcutaneous tissue, lesion: fibrosarcoma, dosed 103 weeks, study length 104 weeks); 16600 mg/kg/day (inactive) (rat, strain Fischer 344, females, by gavage, site: any site (literature study), lesion: several types, types named in the paper, dosed 103 weeks, study length 105 weeks); 237 mg/kg/day (rat, strain Fischer 344, males, by gavage, site: any site (literature study), lesion: several types, types named in the paper, dosed 103 weeks, study length 105 weeks); 774 mg/kg/day (rat, strain Fischer 344, males, by gavage, site: kidney + preputial gland, lesion: tubular-cell adenoma + tubular-cell adenocarcinoma + carcinoma, NOS, dosed 103 weeks, study length 105 weeks); 1210 mg/kg/day (rat, strain Fischer 344, males, by gavage, site: kidney, lesion: tubular-cell adenoma + tubular-cell adenocarcinoma, dosed 103 weeks, study length 105 weeks). Besides, the TD50 is, setting by setting: (rat, strain Fischer 344, males, by gavage, site: liver, lesion: hepatocellular adenoma + hepatocellular carcinoma + neoplastic nodule, dosed 103 weeks, study length 105 weeks) 9080 mg/kg/day; (rat, strain Fischer 344, males, by gavage, site: preputial gland, lesion: carcinoma, NOS, dosed 103 weeks, study length 105 weeks) 2250 mg/kg/day.

With `CC(=O)O[C@]1(C(C)=O)CC[C@H]2[C@@H]3C=C(Cl)C4=CC(=O)[C@@H]5C[C@@H]5[C@]4(C)[C@H]3CC[C@@]21C`, the TD50 is 1120 mg/kg/day (mouse, strain C57BL/10J, females, in feed, site: liver, lesion: hepatocellular adenoma, dosed 97 weeks, study length 97 weeks); 254 mg/kg/day (mouse, strain C57BL/10J, females, in feed, site: liver, lesion: hepatocellular carcinoma, dosed 97 weeks, study length 97 weeks); 254 mg/kg/day (mouse, strain C57BL/10J, females, in feed, site: liver, lesion: several types, types named in the paper, dosed 97 weeks, study length 97 weeks); 16.8 mg/kg/day (mouse, strain C57BL/10J, females, in feed, site: pylorus, lesion: adenomatous polyp, dosed 97 weeks, study length 97 weeks); 333 mg/kg/day (mouse, strain C57BL/10J, males, in feed, site: liver, lesion: hepatocellular adenoma, dosed 104 weeks, study length 104 weeks); 179 mg/kg/day (mouse, strain C57BL/10J, males, in feed, site: liver, lesion: hepatocellular carcinoma, dosed 104 weeks, study length 104 weeks). Also, the TD50 by setting is: (mouse, strain C57BL/10J, males, in feed, site: liver, lesion: several types, types named in the paper, dosed 104 weeks, study length 104 weeks) 115 mg/kg/day; (mouse, strain C57BL/10J, males, in feed, site: pylorus, lesion: adenomatous polyp, dosed 104 weeks, study length 104 weeks) 31.6 mg/kg/day.

Take `CC(O)CNCC(C)O` (stereo not drawn): the carcinogen call is, setting by setting: (rat, strain Wistar, males, in feed, site: liver, lesion: hepatocellular carcinoma, dosed 94 weeks, study length 94 weeks) “negative (inactive)”; (rat, strain Wistar, males, in feed, site: lung, lesion: one or several types, types not named, dosed 94 weeks, study length 94 weeks) “negative (inactive)”; (rat, strain Wistar, males, in feed, site: nasal cavity, lesion: one or several types, types not named, dosed 94 weeks, study length 94 weeks) “negative (inactive)”.

In the case of `CCN(Cc1cccc(S(=O)(=O)[O-])c1)c1ccc(C(=C2C=CC(=[N+](C)C)C=C2)c2ccc(N(CC)Cc3cccc(S(=O)(=O)O)c3)cc2)cc1`, the carcinogen call is, setting by setting: (mouse, strain ASH-CS1, females, in feed, site: liver, lesion: one or several types, types not named, dosed 80 weeks, study length 80 weeks) “negative (inactive)”; (mouse, strain ASH-CS1, males, in feed, site: liver, lesion: one or several types, types not named, dosed 80 weeks, study length 80 weeks) “negative (inactive)”; (mouse, strain ASH-CS1, males, in feed, site: lung, lesion: adenoma, dosed 80 weeks, study length 80 weeks) “negative (inactive)”. The TD50 reads like this: (mouse, strain ASH-CS1, females, in feed, site: lung, lesion: adenoma, dosed 80 weeks, study length 80 weeks) 1910 mg/kg/day (inactive); (mouse, strain ASH-CS1, males, in feed, site: lung, lesion: adenocarcinoma, dosed 80 weeks, study length 80 weeks) 4660 mg/kg/day (inactive); (rat, strain Sprague-Dawley albino, females, in feed, site: any site (literature study), lesion: malignant tumor, dosed 52 weeks, study length 52 weeks) 568 mg/kg/day; (rat, strain Sprague-Dawley albino, females, in feed, site: any site (literature study), lesion: several types, types named in the paper, dosed 52 weeks, study length 52 weeks) 660 mg/kg/day; (rat, strain Sprague-Dawley albino, females, in feed, site: ear duct, lesion: carcinoma, dosed 52 weeks, study length 52 weeks) 1600 mg/kg/day; (rat, strain Sprague-Dawley albino, females, in feed, site: mammary gland, lesion: carcinoma, dosed 52 weeks, study length 52 weeks) 1140 mg/kg/day. Further, the TD50 (rat, strain Sprague-Dawley, females, in feed, site: any site (literature study), lesion: several types, types named in the paper, dosed 51 weeks, study length 52 weeks) is 418 mg/kg/day; the TD50 (rat, strain Sprague-Dawley, females, in feed, site: mammary gland, lesion: carcinoma, dosed 51 weeks, study length 52 weeks) is 573 mg/kg/day; the TD50 (rat, strain Sprague-Dawley, females, in feed, site: skin, lesion: squamous-cell carcinoma, dosed 51 weeks, study length 52 weeks) was 1100 mg/kg/day.

Take `CC(=O)[O][Sn]([c]1ccccc1)([c]1ccccc1)[c]1ccccc1`: the TD50 reads like this: (mouse, strain B6AKF1, females, oral dosing, site: any site (literature study), lesion: several types, types named in the paper, dosed 76 weeks, study length 76 weeks) 437 mg/kg/day (inactive); (mouse, strain B6AKF1, females, oral dosing, site: lung, lesion: adenoma, dosed 76 weeks, study length 76 weeks) 964 mg/kg/day (inactive); (mouse, strain B6AKF1, males, oral dosing, site: any site (literature study), lesion: several types, types named in the paper, dosed 76 weeks, study length 76 weeks) 307 mg/kg/day (inactive); (mouse, strain B6AKF1, males, oral dosing, site: liver, lesion: hepatoma, dosed 76 weeks, study length 76 weeks) 241 mg/kg/day (inactive); (mouse, strain B6C3F1, females, oral dosing, site: any site (literature study), lesion: several types, types named in the paper, dosed 76 weeks, study length 76 weeks) 284 mg/kg/day (inactive); (mouse, strain B6C3F1, females, oral dosing, site: liver, lesion: hepatoma, dosed 76 weeks, study length 76 weeks) 909 mg/kg/day (inactive). Besides, the TD50 is 440 mg/kg/day (inactive) (mouse, strain B6C3F1, females, oral dosing, site: lung, lesion: adenoma, dosed 76 weeks, study length 76 weeks); 117 mg/kg/day (inactive) (mouse, strain B6C3F1, males, oral dosing, site: any site (literature study), lesion: several types, types named in the paper, dosed 76 weeks, study length 76 weeks); 407 mg/kg/day (inactive) (mouse, strain B6C3F1, males, oral dosing, site: liver, lesion: hepatoma, dosed 76 weeks, study length 76 weeks); 262 mg/kg/day (inactive) (mouse, strain B6C3F1, males, oral dosing, site: lung, lesion: adenoma, dosed 76 weeks, study length 76 weeks). Besides, the carcinogen call was “negative (inactive)” (mouse, strain B6AKF1, females, oral dosing, site: liver, lesion: hepatoma, dosed 76 weeks, study length 76 weeks) and “negative (inactive)” (mouse, strain B6AKF1, males, oral dosing, site: lung, lesion: adenoma, dosed 76 weeks, study length 76 weeks).

Turning to `O=NN1CCCCCCCCCCCC1`, the TD50 is 10.9 mg/kg/day (rat, strain NZR/Gd, females, by gavage, site: liver, lesion: hepatocellular tumor, dosed 52 weeks, study length 171 weeks); 7.96 mg/kg/day (rat, strain NZR/Gd, females, by gavage, site: lung, lesion: several types, types named in the paper, dosed 52 weeks, study length 171 weeks); 2.15 mg/kg/day (rat, strain NZR/Gd, males, by gavage, site: heart, lesion: one or several types, types not named, dosed 52 weeks, study length 150 weeks); 16.8 mg/kg/day (rat, strain NZR/Gd, males, by gavage, site: liver, lesion: hepatocellular tumor, dosed 52 weeks, study length 150 weeks); 14.6 mg/kg/day (rat, strain NZR/Gd, males, by gavage, site: lung, lesion: several types, types named in the paper, dosed 52 weeks, study length 150 weeks).

For the compound `CCC[CH2][Sn]([CH2]CCC)([O]C(C)=O)[O]C(C)=O`, the TD50 was 29.6 mg/kg/day (mouse, strain B6C3F1, females, in feed, site: any site (literature study), lesion: several types, types named in the paper, dosed 78 weeks, study length 92 weeks); 31.6 mg/kg/day (mouse, strain B6C3F1, females, in feed, site: liver, lesion: hepatocellular adenoma + hepatocellular carcinoma + neoplastic nodule, dosed 78 weeks, study length 92 weeks); 31.6 mg/kg/day (inactive) (mouse, strain B6C3F1, females, in feed, site: liver, lesion: hepatocellular adenoma, dosed 78 weeks, study length 92 weeks); 178 mg/kg/day (inactive) (mouse, strain B6C3F1, males, in feed, site: any site (literature study), lesion: several types, types named in the paper, dosed 78 weeks, study length 92 weeks); 29.2 mg/kg/day (mouse, strain B6C3F1, males, in feed, site: liver, lesion: hepatocellular adenoma + hepatocellular carcinoma + neoplastic nodule, dosed 78 weeks, study length 92 weeks); 94.4 mg/kg/day (rat, strain Fischer 344, females, in feed, site: liver, lesion: hepatocellular adenoma + hepatocellular carcinoma + neoplastic nodule, dosed 78 weeks, study length 104 weeks). Further, the carcinogen call (rat, strain Fischer 344, males, in feed, site: any site (literature study), lesion: several types, types named in the paper, dosed 78 weeks, study length 104 weeks) is “negative (inactive)”.
